Results reported in patent publication US20230094006A1, “PHARMACEUTICAL COMPOSITION CONTAINING MACROLIDE COMPOUND, PRODUCTION METHOD THEREFOR, AND METHOD USING SAME” (priority 2020, published 2023).
Values after ≈ are worked out from the molar mass of the structure shown. Read-outs that look alike come from different tables or passages of the source.

Experiments:
M. tuberculosis = assay: Resazurin microtiter MIC, arenicolide A and ethambutol alone and combined; assay type: cell-based; settings: Mycobacterium tuberculosis, 120 h
[1] = tested on: Mycobacterium tuberculosis Mtb H37Rv strain; assay: Resazurin microtiter assay (REMA), standard strain
Experimental: MIC was measured by using a resazurin microtiter assay (REMA). Briefly, 100 μl of 7H9 liquid medium was added to each well of a 96-well microtiter plate, and two-fold serial dilutions of antibiotics were directly added to each well. Plates were covered and incubated for 5 days at 37° C. Resazurin (0.01% (w/v)) was added to each well and the plates were incubated overnight. Fluorescence intensity was measured by using a SpectraMax M3 Multi-Mode Microplate Reader (Molecular Devices, CA, USA) (ex. 560/em. 590 nm).

[2] = tested on: Mycobacterium tuberculosis (Mtb); assay: Mouse tuberculosis infection model, viable Mycobacterium tuberculosis in lung tissue; assay type: in vivo; settings: C57BL/6 mice, nasal infection 2×10^4 CFU; 100 mg/kg oral for 6 days from day 4; sacrifice day 10; vs PBS negative control, p<0.001
Experimental: C57BL/6 mice (n=16) were prepared to investigate the anti-tuberculous activity of arenicolide A. Mice were nasally infected with 2×10^4/CFU of Mycobacterium tuberculosis (Mtb), and the mice were randomly divided into two groups (each, n=8). From the 4th day, arenicolide A was orally administered at a dose of 100 mg/body weight kg for 6 days. Phosphate-buffered saline (PBS) was administered as a negative control. Mice were sacrificed on day 10 from the day of infection (FIG. 2A).

M. abscessus strain = assay: Mouse non-tuberculous Mycobacterium infection model, viable cells in lung tissue; assay type: in vivo; settings: mice, nasal infection 1×10^7 CFU M. abscessus; 100 mg/kg oral for 5 days from day 3; sacrifice day 7; vs negative control, p<0.001
Experimental: As described in Example 2-2, 57BL/6 mice were nasally infected with 1×10^7/CFU of M. abscessus strain. From the 3rd day, arenicolide A was orally administered at a dose of 100 mg/body weight kg for 5 days. As a negative control, 2.5% (v/v) DMSO and 2.5% (v/v) ethanol were administered. Mice were sacrificed on day 7 from the day of infection. The number of viable tubercle bacilli in the lung tissue was investigated, and the results are shown in FIG. 3 (each, n=6, ***: p<0.001).

[3] = tested on: BCG (bacillus Calmette-Guerin) strain; assay type: in vivo, Mycobacterium bovis; settings: mice, nasal infection 1×10^6 CFU BCG; 100 mg/kg oral for 6 days from day 4; sacrifice day 10; vs negative control
[4] = tested on: M. tuberculosis mc2 6230 strain; assay: Resazurin microtiter assay (REMA), dose-response curve; assay type: cell-based; settings: Mycobacterium tuberculosis, MC26230STRAIN, 120 h, M. tuberculosis mc2 6230, 7H9 liquid medium, 5 days at 37° C.

**Q.** For `CC[C@@H](CO)NCCN[C@@H](CC)CO` [ethambutol, reference compound], which MIC (M. tuberculosis; administered alone, Middlebrook 7H9 with ADC, 5 days at 37° C., resazurin, read-out: MIC) is on record?
**A.** 3.2 µM

**Q.** With `CCC[C@H](O)[C@@H](OC)[C@H]1O[C@]1(C)[C@@H](O)C/C=C/[C@@H]1OC(=O)/C=C/C=C/[C@@H](OC)[C@H](O)/C=C/C(C)=C/[C@@H](C)CCC[C@@H](OC)C(O)/C=C/C(C)=C/[C@@H](C)[C@H](O)[C@H]1OC` (some centres unmarked) [arenicolide A] as the compound, how does the MIC50 [1] read?
**A.** ~6.9 µM (≈ 5.55 µg/mL)

**Q.** What about the “number of viable Mycobacterium tuberculosis in the lung tissue” value [2] of the same compound?
**A.** significantly reduced

**Q.** What about the “number of viable cells in the lung tissue” value (M. abscessus strain) of the same compound?
**A.** significantly decreased

**Q.** And the “inhibitory activity against BCG bacteria (viable cells in lung tissue)” value [3]?
**A.** effective inhibitory activity

**Q.** And the MIC50 [4]?
**A.** ~24.6 µM (≈ 19.8 µg/mL)

**Q.** What about the MIC (M. tuberculosis) of the same compound?
**A.** 0.78 µM

**Q.** `CCC[C@@H]1O[C@@](C)([C@@H](O)C/C=C/[C@@H]2OC(=O)/C=C/C=C/[C@@H](OC)[C@H](O)/C=C/C(C)=C/C(C)CCC[C@@H](OC)[C@H](O)/C=C/C(C)=C/[C@@H](C)[C@H](O)[C@H]2OC)[C@H](O)[C@@H]1OC` (some centres unmarked) [arenicolide C] was tested. Which “inhibitory activity against BCG bacteria (viable cells in lung tissue)” value [3] did it give?
**A.** effective inhibitory activity
